Values joined by “and” are separate entries in the source; they are usually repeats but may differ in a detail not shown here. Equal values may be shown once. Read-outs that look alike come from different tables or passages of the source.
Columns and labels:
AB1 cells [1] = assay: JC-1 assay of mitochondrial membrane potential; type: cell-based, mouse; details: for JC-1 Aggregates / JC-1 Monomers: representative dot plot; for mitochondrial membrane depolarization (in words): 25 µM
[2] = system: JU77 (human malignant mesothelioma) cells; assay: cells; details: 72 h, read-out: IC50 JU77
[3] = system: MRC-5 (human embryonic lung fibroblast) cells; assay: MTT cytotoxicity, MRC-5 cells, 72 h; type: cell-based; details: MRC5, 72 h exposure
[4] = NO release, Griess assay (phosphate buffer pH 7.4 with L-cysteine); type: physicochemical; details: for NO Released (%) 1 h: 1 h incubation, expressed as % NO2− (μmol/μmol), Griess assay, physiological conditions, furoxan 100 µM; for NO Released (%) 24 h: 24 h incubation; for NO Released (%) 24 h / NO Released (%) 48 h: % NO2− (μmol/μmol); for NO Released (%) 48 h: 48 h incubation; for NO-donor ranking (in words): among all tested compounds
AB1 cells [5] = assay: NO release in vitro in AB1 cells (Griess reagent); type: cell-based, mouse; details: 25 μM, 24 h, relative to untreated cells
[6] = system: AB1 (mouse malignant mesothelioma) cells; assay: cells; details: AB1, 72 h, read-out: IC50 AB1
[7] = system: JU77 (human malignant mesothelioma) cells; details: for SF JU77 (selectivity factor): ratio of the IC50 value in MRC-5 to that in JU77
AB1 and JU77 cell lines [8] = assay: cells; details: MPM, 72 h, read-out: IC50 (cytotoxicity) in both MPM cell lines
[9] = system: AB1 (mouse malignant mesothelioma) cells
AB1 cells [10] = assay: Annexin V/PI assay, flow cytometry; type: cell-based, mouse; details: 25 µM, 24 h
AB1 and JU77 cell lines [11] = system: AB1 and JU77 cell lines
[12] = system: JU77 (human malignant mesothelioma) cells; design: method as in PMID 40006597; details: MTT, 72 h exposure; cited from earlier work
[13] = system: AB1 (mouse malignant mesothelioma) cells; design: method as in PMID 40006597; details: MTT, 72 h exposure; cited from earlier work
[14] = system: MRC-5 (human embryonic lung fibroblast) cells; design: method as in PMID 40006597; details: MTT, 72 h exposure; cited from earlier work
[15] = Stability in DMSO-d6 by 1H NMR spectroscopy; type: physicochemical; details: DMSO-d6, 1H NMR spectra after 1, 20, 48 and 120 h
From the text: For the synthesis of the target bis(1,2,4-oxadiazolyl)furoxans, we employed a synthetic approach based on the reaction of readily available furoxanylbis(amidoxime) 1c with in situ activated carboxylic acids, except for compound 2a, which was synthesized using orthoformate in the presence of boron trifluoride etherate. Specifically, activation of the corresponding carboxylic acid with 1,1′-carbonyldiimidazole, followed by the addition of bis(amidoxime) 1c and 1,4-diazabicyclo [2.2.2]octane (DABCO) as a base to promote the heterocyclization step, afforded the desired heterocyclic assemblies 2b–l (Scheme 1, Figures S1–S24). […] The stability of the synthesized heterocyclic compounds was further examined in DMSO-d6 via ^1H NMR spectroscopy. The representative compound 2j was completely stable in solution for at least 120 h. The corresponding set of ^1H NMR spectra recorded for 2j after 1, 20, 48, and 120 h is provided in the (supporting information (SI) Figure S25).
Figure S25. Stability of the representative compound 2j for 1 h, 20 h, 48 h and 120 h in DMSO -[d6] according to 1H NMR spectroscopy.
(1 picture or pasted object on this page, not shown here)

[16] = design: method as in PMID 40006597; details: % NO2− (μmol/μmol), cited from earlier work; for NO Released (%) 1 h: 1 h incubation; for NO Released (%) 24 h: 24 h incubation; for NO Released (%) 48 h: 48 h incubation
[17] = positive control, 20 μM, 30 min

| IC50 [2] [µM] | IC50 [6] [µM] | Compound | IC50 [3] [µM] | NO Released (%) 1 h [4] [%] | NO Released (%) 24 h [4] [%] | NO Released (%) 48 h [4] [%] | intracellular NO release (in words) (AB1 cells [5]) | SF JU77 (selectivity factor) [7] | further results |
| --- | --- | --- | --- | --- | --- | --- | --- | --- | --- |
|  |  | N#CC(C#N)=NNc1cccc(Cl)c1 [CCCP, carbonyl cyanide 3-chlorophenylhydrazone, reference compound] |  |  |  |  |  |  | JC-1 Aggregates (AB1 cells [1]; [17]): 30.1%; JC-1 Monomers (AB1 cells [1]; [17]): 69.9% |
| 14.1 ± 4.1 | 8.5 ± 2.1 | [O-][n+]1onc(-c2noc(-c3ccncc3)n2)c1-c1noc(-c2ccncc2)n1 [2f] | 29.9 ± 1.6 | 71 ± 15 | 94 ± 15 | 103 ± 14 | highest levels of intracellular NO and high | 2.1 | mitochondrial membrane depolarization (in words) (AB1 cells [1]; 24 h): markedly higher and relatively comparable levels of depolarization; JC-1 Aggregates (AB1 cells [1]; 25 μM, 24 h): 87.6%; JC-1 Monomers (AB1 cells [1]; 25 μM, 24 h): 12.4%; increase of cytotoxicity in AB1 cells relative to 2a [9]: 1.4 fold; decrease of cytotoxicity in JU77 cells relative to 2a [7]: 1.6 fold; NO-donor ranking (in words) [4]: most effective NO donors; total amount of released NO ([4]; with longer incubation periods): exceeded 100%; IC50 (AB1 and JU77 cell lines [8]): 3 to 14 µM |
| > 25 | > 25 | COc1ccc(-c2nc(-c3no[n+]([O-])c3-c3noc(-c4ccc(OC)cc4)n3)no2)cc1 [2i] | > 25 | 75 ± 1 | 78 ± 5 | 89 ± 3 | minimal NO release |  | cytotoxicity (in words) (AB1 and JU77 cell lines [11]): lacked cytotoxic effects; cytotoxic effects in the AB1 cell line (in words) [9]: no cytotoxic effects; NO-donor ranking (in words) [4]: most effective NO donors |
| 16 ± 3.9 | > 25 | Cc1ccc(-c2nc(-c3no[n+]([O-])c3-c3noc(-c4ccc(C)cc4)n3)no2)cc1 [2h] | > 25 | 37 ± 5 | 52 ± 1 | 56 ± 1 | minimal NO release | >1.6 | cytotoxicity (in words) (AB1 and JU77 cell lines [11]): lacked cytotoxic effects; cytotoxic effects in the AB1 cell line (in words) [9]: no cytotoxic effects |
|  |  | N.N.[Cl][Pt][Cl] [Cisplatin, cisplatin] |  |  |  |  |  |  | IC50 [12]: 4.2 ± 0.5 µM; IC50 [13]: 5.8 ± 1 µM; IC50 [14]: 3.1 ± 1.2 µM |
| 19.7 ± 2.1 | 21.7 ± 4.5 | COc1ccc(-c2nc(-c3no[n+]([O-])c3-c3noc(-c4ccc(OC)c(OC)c4)n3)no2)cc1OC [2j] | 25.7 ± 8.7 | 35 ± 2 | 37 ± 3 | 39 ± 5 |  | 1.3 | time completely stable in solution [15]: at least 120 h |
|  |  | NC(=O)c1c(CO)no[n+]1[O-] [CAS-1609, 3-carbamoyl-4-(hydroxymethyl)furoxan] |  |  |  |  |  |  | NO Released (%) 1 h [16]: 27% and 27 ± 3%; NO Released (%) 24 h [16]: 68 ± 6%; NO Released (%) 48 h [16]: 73 ± 6% |
| 10.5 ± 0.5 | 33.9 ± 3.4 | [O-][n+]1onc(-c2noc(-c3ccccc3)n2)c1-c1noc(-c2ccccc2)n1 [2e] | 17.7 ± 3.8 | 51 ± 10 | 61 ± 12 | 64 ± 2 | minimal NO release | 1.6 | cytotoxic effects in the AB1 cell line (in words) [9]: no cytotoxic effects |
|  |  | CCOc1no[n+]([O-])c1S(=O)(=O)c1ccccc1 [CHF-2363, 4-ethoxy-3-phenylsulfonylfuroxan] |  |  |  |  |  |  | NO Released (%) 1 h [16]: 26% and 26 ± 10%; NO Released (%) 24 h [16]: 71 ± 4%; NO Released (%) 48 h [16]: 77 ± 9% |

| Compound | IC50 [2] [µM] | IC50 [6] [µM] | IC50 [3] [µM] | NO Released (%) 1 h [4] [%] | NO Released (%) 24 h [4] [%] | NO Released (%) 48 h [4] [%] | intracellular NO release (in words) (AB1 cells [5]) | SF JU77 (selectivity factor) [7] | further results |
| --- | --- | --- | --- | --- | --- | --- | --- | --- | --- |
| O=[N+]([O-])c1ccc(-c2nc(-c3no[n+]([O-])c3-c3noc(-c4ccc([N+](=O)[O-])cc4)n3)no2)cc1 [2b] | > 25 | > 25 | > 25 | 38 ± 3 | 46 ± 1 | 48 ± 2 | minimal NO release |  |  |
| O=[N+]([O-])c1ccccc1-c1nc(-c2no[n+]([O-])c2-c2noc(-c3ccccc3[N+](=O)[O-])n2)no1 [2d] | 3 ± 0.4 | 11.2 ± 2 | 16.8 ± 5.7 | 54 ± 14 | 69 ± 14 | 72 ± 13 | highest levels of intracellular NO | 5.7 | IC50 (AB1 and JU77 cell lines [8]): 3 to 14 µM |
| O=[N+]([O-])c1cccc(-c2nc(-c3no[n+]([O-])c3-c3noc(-c4cccc([N+](=O)[O-])c4)n3)no2)c1 [2c] | 7.3 ± 1 | 19.9 ± 4.3 | 27.9 ± 4.6 | 37 ± 1 | 49 ± 2 | 63 ± 2 |  | 3.8 |  |
| [O-][n+]1onc(-c2noc(-c3ccccc3Cl)n2)c1-c1noc(-c2ccccc2Cl)n1 [2k] | 4.9 ± 1.2 | 15.5 ± 3 | 7.8 ± 2.3 | 37 ± 5 | 41 ± 8 | 43 ± 7 | low |  | mitochondrial membrane depolarization (in words) (AB1 cells [1]; 24 h): least mitochondrial damage; JC-1 Aggregates (AB1 cells [1]; 25 μM, 24 h): 96.3%; JC-1 Monomers (AB1 cells [1]; 25 μM, 24 h): 3.7%; induction of apoptosis/necrosis (in words) (AB1 cells [10]): did not induce significant cancer cell death |

— publication PMC12656327 (Pharmaceutics, 2025)
